This note sets out measurements from patent US11851421B2, “Near-infrared cyanine dyes and conjugates thereof” (BRACCO IMAGING S.P.A., priority 2020, dated 2023).

A short description of data set [1]: Optical properties: excitation/emission maxima and absolute fluorescence quantum yield. Format: physicochemical. The protocol: A dual-beam UV-VIS spectrophotometer (Lambda 40, Perkin Elmer) was used to determine the absorbance (Abs) of the compounds of the invention. Emission/excitation (Em/Ex) spectra and absolute fluorescence quantum yield (ϕ) measurements were carried out on a spectrofluorometer (FluoroLog-3 1IHR-320, Horiba Jobin Yvon) equipped with an F-3018 integrating sphere accessory. The measurements were performed using an excitation wavelength at maximum absorbance of different dyes, and the sample was excited with a 450 W Xenon Light Source. Detection was performed by photomultiplier tubes (PMT-NIR) cooled detector or by TBX-04 detector. Dye solutions were carefully prepared to have an absorbance lower than 0.1 (optical densities) to minimize re-absorption phenomena.
The compounds of the invention have been characterized in terms of their optical properties in vitro in aqueous medium (i.e., water/PBS pH 7.4) and in a clinical chemistry control serum (Seronorm, Sero SA), mimicking the chemical composition and optical properties of human serum. All dye or dye-conjugate solutions were freshly prepared. ICG and S0456 were used as commercial references.
In particular, the excitation and emission maxima and the absolute fluorescence quantum yield (Φ) of representative compounds of formula (I) and conjugates of formula (II) are shown in Table II.

In data set [2] the target is T1, human serum albumin (HSA) (Homo sapiens, UniProt P02768).
T1 construct: purchased Sigma Aldrich A9511
T1 sequence (P02768 25-609): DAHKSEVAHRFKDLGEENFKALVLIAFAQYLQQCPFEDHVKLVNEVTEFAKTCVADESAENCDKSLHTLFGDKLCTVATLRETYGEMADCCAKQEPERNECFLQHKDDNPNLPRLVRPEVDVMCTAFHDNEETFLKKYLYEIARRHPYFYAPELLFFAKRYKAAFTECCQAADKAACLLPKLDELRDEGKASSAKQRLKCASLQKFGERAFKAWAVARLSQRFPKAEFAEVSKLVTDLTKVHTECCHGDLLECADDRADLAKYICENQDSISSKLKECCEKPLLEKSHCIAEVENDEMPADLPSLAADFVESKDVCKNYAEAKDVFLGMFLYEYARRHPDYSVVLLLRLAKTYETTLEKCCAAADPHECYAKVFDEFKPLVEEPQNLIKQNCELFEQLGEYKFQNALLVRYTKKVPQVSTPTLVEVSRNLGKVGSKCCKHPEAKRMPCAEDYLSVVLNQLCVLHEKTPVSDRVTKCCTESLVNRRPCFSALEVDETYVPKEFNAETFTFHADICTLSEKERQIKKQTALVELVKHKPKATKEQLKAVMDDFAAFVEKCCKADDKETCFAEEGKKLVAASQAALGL
As to the kind of experiment: Binding affinity to human serum albumin (absorbance peak shift or ultrafiltration method). The protocol: An analysis of the binding affinity of the compounds of the invention to human albumin was carried out and the results compared with ICG and […] as a reference. Binding affinity to human serum albumin (HSA; Sigma Aldrich, A9511) was measured using two methods, according to the level of binding affinity of the compounds. The first method, optimal for compounds which strongly interact with HSA, is based on the analysis of the absorbance spectrum peak shift after the incubation of the dye in solutions containing HSA. […] The measure was performed at the maximum absorbance wavelength of the shifted peak. The second method, optimal for compound with low affinity for HSA, is based on measuring the variation of the absorbance of solutions containing the dye and various concentrations of HSA after ultrafiltration. […] In the first method, ΔA/b corresponds to the absorbance measured for each sample, whereas in the second method ΔA/b is obtained subtracting the absorbance of the control sample (dye without HSA) to the absorbance of each other sample.

Setting [3] is: Seronorm (clinical chemistry control serum).

In the case of `CC1(C)C(/C=C/C2=C(c3ccccc3)C(=C/C=C3\N(CCCCCC(=O)NCCCCC4NC(=O)[C@@H](Cc5ccccc5)NC(=O)[C@H](CC(=O)O)NC(=O)CNC(=O)[C@H](CCCNC(=N)N)NC4=O)c4ccc(C(=O)NCC(O)C(O)C(O)C(O)CO)cc4C3(C)C)/CCC2)=[N+](CCCCS(=O)(=O)[O-])c2ccc(C(=O)NCC(O)C(O)C(O)C(O)CO)cc21` (stereo partly shown) [Compound 3], in data set [1] (PBS pH 7.4), the “Max Em (emission maximum)” value worked out at 787 nm, the “Max Ex (excitation maximum)” value is 771 nm and the “Φ (absolute fluorescence quantum yield)” value is reported as 6.4%. For the same compound, the “Φ (absolute fluorescence quantum yield)” value in data set [1] (setting [3]) stood at 8.1%.

Turning to `CC1(C)C(/C=C/C2=C(c3ccc(CCC(=O)O)cc3)C(=C/C=C3/N(CCCCS(=O)(=O)O)c4ccc(C(=O)NCC(O)C(O)C(O)C(O)CO)cc4C3(C)C)/CCC2)=[N+](CCCCS(=O)(=O)[O-])c2ccc(C(=O)NCC(O)C(O)C(O)C(O)CO)cc21` (stereo not shown) [Compound 11], in data set [2], the Kd (commonly the free concentration of one partner at which half of the binding sites on the other are occupied at equilibrium, for simple one-to-one binding) is 154 µM. In addition, in data set [1] (PBS pH 7.4), the “Max Em (emission maximum)” value is listed as 786 nm, the “Max Ex (excitation maximum)” value is 764 nm and the “Φ (absolute fluorescence quantum yield)” value is 6.3%. In addition, the “Φ (absolute fluorescence quantum yield)” value in data set [1] (setting [3]) is reported as 11.5%.

In the case of `CC1(C)C(/C=C/C2=C(Oc3ccc(S(=O)(=O)O)cc3)C(=C/C=C3/N(CCCCCC(=O)O)c4ccc(C(=O)NCC(O)C(O)C(O)C(O)CO)cc4C3(C)C)/CCC2)=[N+](CCCCS(=O)(=O)[O-])c2ccc(C(=O)NCC(O)C(O)C(O)C(O)CO)cc21` (stereo not shown) [Compound 15], the dissociation constant (Kd) in data set [2] is 11 µM.

Take `CC1(C)C(/C=C/C2=C(c3ccccc3)C(=C/C=C3/N(CCCCS(=O)(=O)O)c4ccc(C(=O)NCC(O)C(O)C(O)C(O)CO)cc4C3(C)C)/CCC2)=[N+](CCCCS(=O)(=O)[O-])c2ccc(C(=O)NCC(O)C(O)C(O)C(O)CO)cc21` (stereo not shown) [Compound 17]: the Kd in data set [2] is 81.6 µM. For the same compound, in data set [1] (PBS pH 7.4), the “Max Em (emission maximum)” value was 788 nm, the “Max Ex (excitation maximum)” value worked out at 768 nm and the “Φ (absolute fluorescence quantum yield)” value came out at 5.5%. Further, the “Φ (absolute fluorescence quantum yield)” value in data set [1] (setting [3]) was found to be 11.8%.

As to `CC1(C)C(/C=C/C2=C(Oc3ccccc3)C(=C/C=C3/N(CCCCS(=O)(=O)O)c4ccc(C(=O)NCC(O)CO)cc4C3(C)C)/CCC2)=[N+](CCCCS(=O)(=O)[O-])c2ccc(C(=O)NCC(O)CO)cc21` (stereo not shown) [Compound 18], in data set [2], the Kd is 68.5 µM. Also, in data set [1] (PBS pH 7.4), the “Max Em (emission maximum)” value was 804 nm, the “Max Ex (excitation maximum)” value is 781 nm and the “Φ (absolute fluorescence quantum yield)” value was 6.2%. Also, the “Φ (absolute fluorescence quantum yield)” value in data set [1] (setting [3]) is reported as 10.5%.

Regarding `CC1(C)C(/C=C/C2=C(Oc3ccccc3)C(=C/C=C3/N(CCCCS(=O)(=O)O)c4ccc(C(=O)NC(CO)CO)cc4C3(C)C)/CCC2)=[N+](CCCCS(=O)(=O)[O-])c2ccc(C(=O)NC(CO)CO)cc21` [Compound 19], the dissociation constant (Kd) in data set [2] was 35.3 µM. In data set [1] (PBS pH 7.4), the “Max Em (emission maximum)” value amounted to 805 nm, the “Max Ex (excitation maximum)” value stood at 783 nm and the “Φ (absolute fluorescence quantum yield)” value was found to be 6.5%. In addition, in data set [1] (setting [3]), the “Φ (absolute fluorescence quantum yield)” value is 10.9%.

Turning to `CC1(C)C(/C=C/C2=C(Oc3ccccc3)C(=C/C=C3/N(CCCCS(=O)(=O)O)c4ccc(C(=O)NC5C(O)C(O)C(O)C(O)C5O)cc4C3(C)C)/CCC2)=[N+](CCCCS(=O)(=O)[O-])c2ccc(C(=O)NC3C(O)C(O)C(O)C(O)C3O)cc21` (stereo not shown) [Compound 20], in data set [2], the Kd is 72.5 µM. In data set [1] (PBS pH 7.4), the “Max Em (emission maximum)” value is 801 nm, the “Max Ex (excitation maximum)” value stood at 780 nm and the “Φ (absolute fluorescence quantum yield)” value was found to be 6.3%. Also, the “Φ (absolute fluorescence quantum yield)” value in data set [1] (setting [3]) is reported as 7.7%.

For the compound `CC1(C)C(/C=C/C2=C(c3ccccc3)C(=C/C=C3/N(CCCCS(=O)(=O)O)c4ccc(C(=O)NC(CO)(CO)CO)cc4C3(C)C)/CCC2)=[N+](CCCCS(=O)(=O)[O-])c2ccc(C(=O)NC(CO)(CO)CO)cc21` [Compound 21], in data set [2], the Kd is 30.9 µM. Also, in data set [1] (PBS pH 7.4), the “Max Em (emission maximum)” value came out at 790 nm, the “Max Ex (excitation maximum)” value was determined as 769 nm and the “Φ (absolute fluorescence quantum yield)” value is given as 5.6%. Besides, the “Φ (absolute fluorescence quantum yield)” value in data set [1] (setting [3]) amounted to 12.8%.

Take `CC1(C)C(/C=C/C2=C(c3ccccc3)C(=C/C=C3/N(CCCCC(=O)O)c4ccc(C(=O)NCC(O)C(O)C(O)C(O)CO)cc4C3(C)C)/CCC2)=[N+](CCCCS(=O)(=O)[O-])c2ccc(C(=O)NCC(O)C(O)C(O)C(O)CO)cc21` (stereo not shown) [Compound 22]: the Kd in data set [2] is 120 µM. Besides, in data set [1] (PBS pH 7.4), the “Max Em (emission maximum)” value is listed as 803 nm, the “Max Ex (excitation maximum)” value was 782 nm and the “Φ (absolute fluorescence quantum yield)” value amounted to 6.1%. In data set [1] (setting [3]), the “Φ (absolute fluorescence quantum yield)” value worked out at 9.8%.

Take `CC1(C)C(/C=C/C2=C(Cl)C(=C/C=C3/N(CCCCS(=O)(=O)[O-])c4ccc(S(=O)(=O)[O-])cc4C3(C)C)/CCC2)=[N+](CCCCS(=O)(=O)[O-])c2ccc(S(=O)(=O)[O-])cc21.[Na+].[Na+].[Na+]` [Compound S0456, reference compound]: the “HSA affinity (KA)” value in data set [2] is 350,000 M^−1. Further, in data set [1] (PBS pH 7.4), the “Max Em (emission maximum)” value was 803 nm, the “Max Ex (excitation maximum)” value came out at 782 nm and the “Φ (absolute fluorescence quantum yield)” value is recorded as 3.9%. Besides, the “Φ (absolute fluorescence quantum yield)” value in data set [1] (setting [3]) is listed as 7.7%.

Regarding `CC1(C)C(/C=C/C=C/C=C/C=C2\N(CCCCS(=O)(=O)O)c3ccc4ccccc4c3C2(C)C)=[N+](CCCCS(=O)(=O)[O-])c2ccc3ccccc3c21` [ICG, Indocyanine green, reference compound], in data set [1] (PBS pH 7.4), the “Max Em (emission maximum)” value stood at 810 nm, the “Max Ex (excitation maximum)” value is listed as 780 nm and the “Φ (absolute fluorescence quantum yield)” value was 1.5%. Also, the “Φ (absolute fluorescence quantum yield)” value in data set [1] (setting [3]) is given as 7.8%.
